Experimental data: patent publication US5169841A, “Renin inhibitors” (Hoechst Aktiengesellschaft, priority 1987, dated 1992)

molecular target: T1, human plasma renin (Homo sapiens, UniProt P00797); experiment: Inhibition of angiotensin I formation in human plasma (Renin-Maia radioimmunoassay); type: biochemical; conditions: 37° C., 1 hour, % residual plasma renin activity by angiotensin I RIA
T1 construct: from tissue; host or cells: human EDTA plasma from volunteer subjects
T1 sequence (P00797 67-406): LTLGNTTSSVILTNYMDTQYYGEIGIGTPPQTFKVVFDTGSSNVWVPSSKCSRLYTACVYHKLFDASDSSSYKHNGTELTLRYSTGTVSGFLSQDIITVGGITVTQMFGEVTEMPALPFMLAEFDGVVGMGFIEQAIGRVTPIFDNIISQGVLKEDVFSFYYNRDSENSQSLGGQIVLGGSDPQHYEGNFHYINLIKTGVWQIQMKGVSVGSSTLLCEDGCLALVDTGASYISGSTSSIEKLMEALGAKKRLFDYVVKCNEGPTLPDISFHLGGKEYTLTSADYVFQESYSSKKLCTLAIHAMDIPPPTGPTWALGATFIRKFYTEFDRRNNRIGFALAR
Method: The activity of renin inhibitors can be checked by in vitro tests. These entail the decrease in the formation of angiotensin I being measured in various systems (human plasma, purified human renin).
For example human plasma which contains both renin and angiotensinogen is incubated at 37° C. with the compound to be tested. During this, angiotensin I is liberated from angiotensinogen under the action of renin and can subsequently be measured using a commercially available radioimmunoassay. This liberation of angiotensin is inhibited by renin inhibitors.
The blood is obtained from volunteer subjects (about 0.5 litre per person; Bluko sampler from ASID Bonz and Sohn, Unterschleissheim) and is collected in partially evacuated bottles while cooling in ice. Coagulation is prevented by addition of EDTA (final concentration 10 mM). After centrifugation, (HS 4 Rotor (Sorvall), 3500 rpm, 0°-4° C., 15 min; repeat if necessary), the plasma is carefully removed with a pipette and frozen in suitable portions at -30° C. Only plasma with sufficiently high renin activity are used for the test. Plasma with low renin activity are activated by cold treatment (-4° C., 3 days (prorenin→renin).
Angiotensin I is determined using the Renin-Maia® Kit (Serono Diagnostics S. A., Coinsins, Switzerland). The plasma is incubated in accordance with the instructions given therein:
1000 μl of plasma (defrozen at 0-4° C.)
100 μl of phosphate buffer (ph 7.4)
10 μl of 0.1% Genapol PFIC
12 μl of DMSO or test product
The test products are generally dissolved 10^-2 M in 100% dimethylsulfoxide (DMSO) and diluted appropriately with DMSO; the incubation mixture contains not more than 1% DMSO.
The mixtures are mixed up in ice and placed in a water bath (37° C.) for 1 hour for the incubation. 6 samples in total (each of 100 μl) are taken from an additional mixture without inhibitor and without further incubation for the determination of the initial angiotensin I content of the plasma used.
The concentrations of the test products are selected such that the 10-90% range of enzyme inhibition is approximately covered (at least five concentrations). At the end of the incubation time, three 100 μl samples from each mixture are frozen in precooled Eppendorf tubes on dry ice and stored at about -25° C. for the determination of angiotensin I (means from three individual samples).
The instructions for use of the RIA Kit (Rennin-Maia® Kit, Serono Diagnostics S. A., Coinsins, Switzerland) are followed exactly.
The calibration plot embraces the range from 0.2 to 25.0 ng of angiotensin I per ml. The basic angiotensin I content of the plasma is subtracted from all the measured values. The plasma renin activity (PRA) is reported as ng of Ang I/ml x hour. PRA values in the presence of the test substances are related to a mixture without inhibitor (=100%) and reported as % residual activity. The IC50 value is read off from the plot of % residual activity against the concentration (M) of the test product (logarithmic scale).

| IC50 [nM] | SMILES |
| --- | --- |
| 2400 | CCC[C@H](NC(=O)[C@H](Cc1ccccc1)NC(=O)CC(C)C)C(=O)NC(CC1CCCCC1)B1OC2CC3CC(C3(C)C)C2(C)O1 (single isomer, unassigned) [Example 13, Iva-Phe-Nva-[cyclohexylmethyl, (-)-pinanedioxyboryl]-methylamide] |
| 420 | CCC[C@H](NC(=O)[C@H](Cc1ccccc1)NC(=O)CC(C)C)C(=O)NC(CC1CCCCC1)B1OC(C)(C)C(C)(C)O1 (stereo partly drawn) [Example 1, Iva-Phe-Nva-[cyclohexylmethyl,(4,4,5,5-tetramethyl-1,3,2-dioxaborolane-2-yl)]methylamide] |
| 1000 | CCCC[C@H](NC(=O)[C@H](Cc1ccccc1)NC(=O)CC(C)C)C(=O)NC(CC1CCCCC1)B1OC(C)(C)C(C)(C)O1 (stereo partly drawn) [Example 2, Iva-Phe-Nle-[cyclohexylmethyl,(4,4,5,5-tetramethyl-1,3,2-dioxaborolane-2-yl)]methylamide] |
| 2000 | CC(C)CC(=O)N[C@@H](Cc1ccccc1)C(=O)N[C@@H](Cc1c[nH]cn1)C(=O)NC(CC1CCCCC1)B1OC(C)(C)C(C)(C)O1 (stereo partly drawn) [Example 3, Iva-Phe-His-[cyclohexylmethyl,(4,4,5,5-tetramethyl-1,3,2-dioxaborolane-2-yl)]methylamide] |
| 450 | CC(C)CC(=O)N[C@@H](Cc1cccs1)C(=O)N[C@@H](Cc1c[nH]cn1)C(=O)NC(CC1CCCCC1)B1OC(C)(C)C(C)(C)O1 (stereo partly drawn) [Example 4, Iva-Thi-His-[cyclohexylmethyl,(4,4,5,5-tetramethyl-1,3,2-dioxaborolane-2-yl)]methylamide] |
| 550 | CCC[C@H](NC(=O)[C@H](Cc1ccccc1)NC(=O)CC(C)C)C(=O)NC(CC1CCCCC1)B(O)O (stereo partly drawn) [Example 5, Iva-Phe-Nva-(cyclohexylmethyl,dihydroxyboryl)methylamide] |
| 670 | CC(C)CC(=O)N[C@@H](Cc1ccccc1)C(=O)N[C@@H](Cc1cccs1)C(=O)NC(CC1CCCCC1)B1OC(C)(C)C(C)(C)O1 (stereo partly drawn) [Example 7, Iva-Phe-Thi-[cyclohexylmethyl,(4,4,5,5-tetramethyl-1,3,2-dioxaborolane-2-yl)]methylamide] |
| 2800 | CCC[C@H](NC(=O)[C@H](Cc1ccccc1)NC(=O)CC(C)C)C(=O)NC(CC1CCC(C)CC1)B1OC(C)(C)C(C)(C)O1 (stereo partly drawn) [Example 15, Iva-Phe-Nva-[(4-methylcyclohexyl)methyl,(4,4,5,5-tetramethyl-1,3,2-dioxaborolane-2-yl)]methylamide] |
| 3000 | CCC[C@H](NC(=O)[C@H](Cc1ccccc1)NC(=O)CC(C)C)C(=O)NC(CC1CCCCCC1)B1OC(C)(C)C(C)(C)O1 (some centres unmarked) [Example 16] |
| 9000 | CC(C)CC(=O)N[C@@H](Cc1ccccc1)C(=O)N[C@@H](Cc1c[nH]cn1)C(=O)NC(CC1CCCCCCC1)B1OC(C)(C)C(C)(C)O1 (stereo partly drawn) [Example 18, Iva-Phe-His-[cycloctylmethyl,(4,4,5,5-tetramethyl-1,3,2-dioxaborolane-2-yl)]methylamide] |
| 8000 | CC(C)CC(=O)N[C@@H](Cc1ccccc1)C(=O)N[C@@H](Cc1c[nH]cn1)C(=O)NC(CC1CCCCCC1)B1OC(C)(C)C(C)(C)O1 (stereo partly drawn) [Example 19, Iva-Phe-His-[cycloheptylmethyl,(4,4,5,5-tetramethyl-1,3,2-dioxaborolane-2-yl)]methylamide] |
| 280 | CCC[C@H](NC(=O)C(Cc1cccs1)CS(=O)(=O)C(C)(C)C)C(=O)NC(CC1CCCCC1)B1OC(C)(C)C(C)(C)O1 (some centres unmarked) [Example 35, [3-t-Butylsulfonyl,2-(2-thienylmethyl)]propionyl-Nva-[cyclohexylmethyl,(4,4,5,5-tetramethyl-1,3,2-dioxaborolane-2-yl)]methylamide] |
| 620 | CCC[C@H](NC(=O)C(Cc1ccccc1)CS(=O)(=O)C(C)(C)C)C(=O)NC(CC1CCCCC1)B1OC(C)(C)C(C)(C)O1 (some centres unmarked) [Example 36, (2-Benzyl,3-t-butylsulfonyl)propionyl-Nva-[cyclohexylmethyl,(4,4,5,5-tetramethyl-1,3,2-dioxaborolane-2-yl)]methylamide] |
| 2100 | CC(C)[C@H](NC(=O)C(Cc1ccccc1)CS(=O)(=O)C(C)(C)C)C(=O)NC(CC1CCCCC1)B1OC(C)(C)C(C)(C)O1 (some centres unmarked) [Example 39, (2-Benzyl,3-t-butylsulfonyl)propionyl-Val-[cyclohexylmethyl,(4,4,5,5-tetramethyl-1,3,2-dioxaborolane-2yl)]-methylamide] |
| 3600 | CC1(C)OB(C(CC2CCCCCC2)NC(=O)[C@H](Cc2cccs2)NC(=O)C(Cc2cccs2)CS(=O)(=O)C(C)(C)C)OC1(C)C (some centres unmarked) [Example 40, [3-t-Butylsulfonyl,2-(2-thienylmethyl)]propionyl-thi[cycloheptylmethyl,(4,4,5,5-tetramethyl-1,3,2-dioxaborolane-2-yl)]methylamide] |
| 1500 | CCC[C@H](NC(=O)C(Cc1cccs1)CS(=O)(=O)C(C)(C)C)C(=O)NC(CC1CCCCCC1)B1OC(C)(C)C(C)(C)O1 (some centres unmarked) [Example 41, [3-t-Butylsulfonyl,2-(2-thienylmethyl)]propionyl-Nva-[cycloheptylmethyl,(4,4,5,5-tetramethyl-1,3,2-dioxaborolane-2-yl)]methylamide] |
| 950 | CCC[C@H](NC(=O)C(Cc1cccc2ccccc12)CS(=O)(=O)C(C)(C)C)C(=O)NC(CC(C)C)B1OC(C)(C)C(C)(C)O1 (some centres unmarked) [Example 42, [3-t-Butylsulfonyl,2-(1-naphthylmethyl)]propionyl-Nva-[3-methyl,1-(4,4,5,5-tetramethyl-1,3,2-dioxaborolane-2-yl)]butylamide] |
| 550 | CC1(C)OB(C(CC2CCCCC2)NC(=O)[C@H](Cc2cccs2)NC(=O)C(Cc2cccs2)CS(=O)(=O)C(C)(C)C)OC1(C)C (some centres unmarked) [Example 43, [3-t-Butylsulfonyl,2-(2-thienylmethyl)]propionyl-Thi-[cyclohexylmethyl,(4,4,5,5-tetramethyl-1,3,2-dioxaborolane-2-yl)]methylamide] |
| 2400 | CCC[C@H](NC(=O)C(Cc1ccccc1)CS(=O)(=O)C(C)(C)C)C(=O)NC(CC1CCCC1)B1OC(C)(C)C(C)(C)O1 (some centres unmarked) [Example 44, (2-Benzyl,3-t-butylsulfonyl)propionyl-Nva-[cyclopentylmethyl,(4,4,5,5-tetramethyl-1,3,2-dioxaborolane-2-yl)]-methylamide] |
| 1500 | CCC[C@H](NC(=O)C(Cc1cccc2ccccc12)CS(=O)(=O)C(C)(C)C)C(=O)NC(CC1CCCC1)B1OC(C)(C)C(C)(C)O1 (some centres unmarked) [Example 50] |
| 1800 | CCC[C@H](NC(=O)C(Cc1cccc2ccccc12)CS(=O)(=O)C(C)(C)C)C(=O)NC(CC(CC)CC)B1OC(C)(C)C(C)(C)O1 (some centres unmarked) [Example 51, [3-t-Butylsulfonyl,2-(1-naphthylmethyl)]propionyl-Nva-[3-ethyl,1-(4,4,5,5-tetramethyl-1,3,2-dioxaborolane-2-yl)]-pentylamide] |
| 2800 | CCC[C@H](NC(=O)C(Cc1ccccc1)CS(=O)(=O)C(C)(C)C)C(=O)NC(CC(CC)CC)B1OC(C)(C)C(C)(C)O1 (some centres unmarked) [Example 52, (2-Benzyl,3-t-butylsulfonyl)propionyl-Nvu-[3-ethyl,1-(4,4,5,5-tetramethyl-1,3,2-dioxaborolane-2-yl)]pentylamide] |
| 900 | CC1(C)OB(C(CC2CCCCC2)NC(=O)[C@H](CC(N)=O)NC(=O)C(Cc2cccs2)CS(=O)(=O)C(C)(C)C)OC1(C)C (some centres unmarked) [Example 54, (3-t-Butylsulfonyl,2-(2-thienylmethyl)]propionyl-Asn-[cyclohexylmethyl,(4,4,5,5-tetramethyl-1,3,2-dioxaborolane-2-yl)]methylamide] |
